Measured values from patent US20190388558A1, “KARTOGENIN DERIVATIVE-CONTAINING POLYMERIC MICELLE, HYALURONIC ACID HYDROGEL, METHOD FOR PRODUCING THE SAME, AND USE THEREOF” (DONGGUK UNIVERSITY INDUSTRY-ACADEMIC COOPERATION FOUNDATION, priority 2018, published 2019).

Tested on: rats in which OA was induced
Test: Intra-articular injection in rats with surgically induced (ACLT + MM) degenerative arthritis; histology, immunohistochemistry, OARSI and Mankin scoring
Type: in vivo, Sprague Dawley rats
Conditions: IA injection twice at 7th and 10th week after surgery, sacrificed 8th week after first injection
Experimental: Animal experiments were performed with the approval of the animal experiment ethics committee by using 9-week old male Sprague Dawley rats (Orient Inc., Seoul, Korea). Degenerative arthritis (osteoarthritis; OA) was induced by performing anterior cruciate ligament transection (ACLT) and medial meniscectomy (MM) on the rats, and the rats were allowed to exercise on a treadmill for 20 minutes every day from two weeks after the surgery.
In the Examples of the present invention, technical statistics were used in order to determine the group average and standard deviation. […]
The rats were sacrificed at 8th week after the first IA injection, the knee joints were dissected and fixed with 10% paraformaldehyde (at 4° C. for 1 day), and then calcareous materials were removed with a Lite decalcifying solution (Sigma-Aldrich), and after the resulting knee joints were embedded in a Tissue-Tek OCT compound (Sakura Finetek, Torrance, Calif., USA) or paraffin wax, and then the paraffin wax fragment was stained with Safranin-O (4% w/v) and Fast Green (0.1% w/w). The degenerative state was evaluated by using an Osteoarthritis Research Society International (OARSI) cartilage Histopathology Assessment System and a Mankin evaluation system, and the fragments were analyzed through immunohistochemistry for COL2 and aggrecan. […]

O=C(O)c1ccccc1C(=O)Nc1ccc(-c2ccccc2)cc1 [KGN, kartogenin]
cartilage histology (Safranin-O staining): loss of cartilage due to matrix vertical cracks and surface layer exfoliation
